Reference: PubChem BioAssay (NCI)
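GI50 marks 50% less growth. TGI is the concentration that stops growth completely.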

How the values were obtained:
Experiment in all cases: NCI-60 cell line screen, 384-well format; in the data active = GI50 below about 0.43 µM; inactive = the rest
SK-MEL-28 melanoma = system: SK-MEL-28 melanoma
RPMI-8226 leukemia = system: RPMI-8226 leukemia
HOP-92 NSCLC = system: HOP-92 NSCLC
T-47D breast = system: T-47D breast
NCI-H23 lung = system: NCI-H23 lung
SK-MEL-5 melanoma = system: SK-MEL-5 melanoma
OVCAR-5 ovarian = system: OVCAR-5 ovarian
M14 melanoma = system: M14 melanoma
BT-549 breast = system: BT-549 breast
UO-31 renal = system: UO-31 renal
IGROV1 ovarian = system: IGROV1 ovarian
SF-295 CNS = system: SF-295 CNS
UACC-62 melanoma = system: UACC-62 melanoma
HL-60(TB) leukemia = system: HL-60(TB) leukemia
SF-539 CNS = system: SF-539 CNS
UACC-257 melanoma = system: UACC-257 melanoma
NCI-H322M lung = system: NCI-H322M lung
MDA-MB-468 breast = system: MDA-MB-468 breast
RXF 393 renal = system: RXF 393 renal
PC-3 prostate = system: PC-3 prostate
OVCAR-3 ovarian = system: OVCAR-3 ovarian
SNB-19 CNS = system: SNB-19 CNS
SN12C renal = system: SN12C renal
A549 NSCLC = system: A549 NSCLC
SW-620 colon = system: SW-620 colon
DU-145 prostate = system: DU-145 prostate
NCI-H460 NSCLC = system: NCI-H460 NSCLC
EKVX NSCLC = system: EKVX NSCLC
KM12 colon = system: KM12 colon
SR leukemia = system: SR leukemia
CCRF-CEM leukemia = system: CCRF-CEM leukemia
MDA-MB-231 breast = system: MDA-MB-231 breast
NCI/ADR-RES ovarian = system: NCI/ADR-RES ovarian
NCI-H522 lung = system: NCI-H522 lung
OVCAR-8 ovarian = system: OVCAR-8 ovarian
COLO 205 colon = system: COLO 205 colon
NCI-H226 lung = system: NCI-H226 lung
HCT-15 colon = system: HCT-15 colon
HCC-2998 colon = system: HCC-2998 colon
ACHN renal = system: ACHN renal
786-0 renal = system: 786-0 renal
SNB-75 CNS = system: SNB-75 CNS
MDA-MB-435 melanoma = system: MDA-MB-435 melanoma
K-562 leukemia = system: K-562 leukemia
HS 578T breast = system: HS 578T breast
HT29 colon = system: HT29 colon
SF-268 CNS = system: SF-268 CNS
OVCAR-4 ovarian = system: OVCAR-4 ovarian
HOP-62 NSCLC = system: HOP-62 NSCLC
LOX IMVI melanoma = system: LOX IMVI melanoma
MALME-3M melanoma = system: MALME-3M melanoma
SK-OV-3 ovarian = system: SK-OV-3 ovarian
A498 renal = system: A498 renal
MOLT-4 leukemia = system: MOLT-4 leukemia
CAKI-1 renal = system: CAKI-1 renal
MCF7 breast = system: MCF7 breast
TK-10 renal = system: TK-10 renal

Cc1cc2ncnn2cc1Nc1ncc2c(n1)n(C1CCOCC1)c(=O)n2C
61.9 µM: TGI (MALME-3M melanoma)
> 100 µM: TGI (SK-MEL-28 melanoma) | TGI (HOP-92 NSCLC) | TGI (NCI-H23 lung) | TGI (SK-MEL-5 melanoma) | TGI (OVCAR-5 ovarian) | TGI (M14 melanoma) | TGI (BT-549 breast) | TGI (UO-31 renal) | TGI (SF-295 CNS) | TGI (UACC-62 melanoma) | TGI (HL-60(TB) leukemia) | TGI (SF-539 CNS) | TGI (UACC-257 melanoma) | TGI (NCI-H322M lung) | TGI (RXF 393 renal) | TGI (PC-3 prostate) | TGI (OVCAR-3 ovarian) | TGI (SNB-19 CNS) | TGI (SN12C renal) | TGI (A549 NSCLC) | TGI (SW-620 colon) | TGI (DU-145 prostate) | TGI (NCI-H460 NSCLC) | TGI (EKVX NSCLC) | TGI (KM12 colon) | TGI (SR leukemia) | TGI (MDA-MB-231 breast) | TGI (NCI/ADR-RES ovarian) | TGI (NCI-H522 lung) | TGI (OVCAR-8 ovarian) | TGI (COLO 205 colon) | TGI (NCI-H226 lung) | TGI (HCT-15 colon) | TGI (HCC-2998 colon) | TGI (ACHN renal) | TGI (786-0 renal) | TGI (SNB-75 CNS) | TGI (MDA-MB-435 melanoma) | TGI (K-562 leukemia) | TGI (HT29 colon) | TGI (SF-268 CNS) | TGI (OVCAR-4 ovarian) | TGI (HOP-62 NSCLC) | TGI (LOX IMVI melanoma) | TGI (SK-OV-3 ovarian) | TGI (CAKI-1 renal) | TGI (MCF7 breast) | TGI (TK-10 renal)
3.98 µM: TGI (RPMI-8226 leukemia)
33.8 µM: TGI (MOLT-4 leukemia)
52.7 µM: TGI (MDA-MB-468 breast)
31.3 µM: TGI (A498 renal)
7.63 µM: TGI (T-47D breast)
37.9 µM: TGI (HS 578T breast)
32.9 µM: TGI (IGROV1 ovarian)
17.5 µM: TGI (CCRF-CEM leukemia)
inactive: GI50 (SK-MEL-28 melanoma) 22.4 µM | GI50 (RPMI-8226 leukemia) 1.44 µM | GI50 (HOP-92 NSCLC) 6.69 µM | GI50 (T-47D breast) 1.7 µM | GI50 (NCI-H23 lung) 26.5 µM | GI50 (SK-MEL-5 melanoma) 15.5 µM | GI50 (OVCAR-5 ovarian) 11.9 µM | GI50 (M14 melanoma) 19.3 µM | GI50 (BT-549 breast) 24.2 µM | GI50 (UO-31 renal) > 100 µM | GI50 (IGROV1 ovarian) 4.91 µM | GI50 (SF-295 CNS) 6.33 µM | GI50 (UACC-62 melanoma) 21.2 µM | GI50 (HL-60(TB) leukemia) 35.2 µM | GI50 (SF-539 CNS) 58.2 µM | GI50 (UACC-257 melanoma) > 100 µM | GI50 (NCI-H322M lung) 18.8 µM | GI50 (MDA-MB-468 breast) 5.36 µM | GI50 (RXF 393 renal) 49.6 µM | GI50 (PC-3 prostate) 8.76 µM | GI50 (OVCAR-3 ovarian) 14.5 µM | GI50 (SNB-19 CNS) > 100 µM | GI50 (SN12C renal) 10.4 µM | GI50 (A549 NSCLC) 12.1 µM | GI50 (SW-620 colon) > 100 µM | GI50 (DU-145 prostate) 28.8 µM | GI50 (NCI-H460 NSCLC) 4.88 µM | GI50 (EKVX NSCLC) 15.6 µM | GI50 (KM12 colon) 18 µM | GI50 (SR leukemia) 4.11 µM | GI50 (CCRF-CEM leukemia) 3.21 µM | GI50 (MDA-MB-231 breast) 7.65 µM | GI50 (NCI/ADR-RES ovarian) > 100 µM | GI50 (NCI-H522 lung) 9.5 µM | GI50 (OVCAR-8 ovarian) 50.5 µM | GI50 (COLO 205 colon) 17.1 µM | GI50 (NCI-H226 lung) 10.5 µM | GI50 (HCT-15 colon) 12 µM | GI50 (HCC-2998 colon) 38.2 µM | GI50 (ACHN renal) 21.5 µM | GI50 ([…]-0 renal) 36.4 µM | GI50 (SNB-75 CNS) 6.38 µM | GI50 (MDA-MB-435 melanoma) 41.4 µM | GI50 (K-562 leukemia) > 100 µM | GI50 (HS 578T breast) 4.78 µM | GI50 (HT29 colon) 32.9 µM | GI50 (SF-268 CNS) > 100 µM | GI50 (OVCAR-4 ovarian) 8.13 µM | GI50 (HOP-62 NSCLC) 22.2 µM | GI50 (LOX IMVI melanoma) 14.4 µM | GI50 (MALME-3M melanoma) 4.21 µM | GI50 (SK-OV-3 ovarian) 6.16 µM | GI50 (A498 renal) 2.66 µM | GI50 (MOLT-4 leukemia) 5.53 µM | GI50 (CAKI-1 renal) 16.5 µM | GI50 (MCF7 breast) 4.64 µM | GI50 (TK-10 renal) 74.7 µM
